Assay results published in US20240158446A1, “CYCLIC COMPOUND HAVING SELECTIVE INHIBITORY ACTION ON KRAS OVER HRAS AND NRAS” (CHUGAI SEIYAKU KABUSHIKI KAISHA, priority 2021, published 2024).
Read-outs that look alike come from different tables or passages of the source. Where a SMILES comes first, the peptide text is derived from it. Bridges are numbered along the chain shown (N, C = ends). [ ]: non-standard residue; d: D form. The star is where a group is joined. hPhe(3,5-F2-4-CF3) = N[C@@H](CCc1cc(F)c(C(F)(F)F)c(F)c1)C(=O)O; NPrPhe(4-CF3) = CCCN[C@@H](Cc1ccc(C(F)(F)F)cc1)C(=O)O; NMeGly(cPent) = CN[C@H](C(=O)O)C1CCCC1; NMeD = CN[C@@H](CC(=O)O)C(=O)O; NMeL = CN[C@@H](CC(C)C)C(=O)O; αMeS = C[C@](N)(CO)C(=O)O; Morpholide = C1CN(*)CCO1; Sar = CNCC(=O)O; tBu = CC(C)(C)*

Key:
[1] = target: GDP-bound NRAS wild-type protein (Homo sapiens, UniProt P01111); experiment: Binding to NRAS by surface plasmon resonance (SPR), Single Cycle Kinetics; details: for NRAS/KRAS (ratio of KD value with respect to GDP-bound NRAS wild-type protein to KD value with respect to KRAS): SPR KD ratio NRAS/KRAS, class symbols
Chain of GDP-bound NRAS wild-type protein (P01111 whole entry): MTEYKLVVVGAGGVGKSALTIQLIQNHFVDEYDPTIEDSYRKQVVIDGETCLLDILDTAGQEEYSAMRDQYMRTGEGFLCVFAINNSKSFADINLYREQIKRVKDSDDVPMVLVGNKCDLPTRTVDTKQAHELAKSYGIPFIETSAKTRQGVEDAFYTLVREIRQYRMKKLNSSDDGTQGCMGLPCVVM

[2] = test system: human lung cancer strain NCI-H441;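 further: cell proliferation inhibition after four days measured by CellTiter-Glo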
[3] = target: GDP-bound HRAS wild-type protein (Homo sapiens, UniProt P01112); experiment: Binding to HRAS by surface plasmon resonance (SPR), Single Cycle Kinetics; details: for HRAS/KRAS (ratio of KD value with respect to GDP-bound HRAS wild-type protein to KD value with respect to KRAS): SPR KD ratio HRAS/KRAS, class symbols
Chain of GDP-bound HRAS wild-type protein (P01112 whole entry): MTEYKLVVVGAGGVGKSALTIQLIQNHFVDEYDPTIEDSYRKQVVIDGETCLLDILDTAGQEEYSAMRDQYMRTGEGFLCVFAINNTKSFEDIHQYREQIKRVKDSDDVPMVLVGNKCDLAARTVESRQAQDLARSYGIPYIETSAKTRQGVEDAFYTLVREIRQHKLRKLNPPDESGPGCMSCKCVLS

[4] = target: GDP-bound KRAS wild-type protein (Homo sapiens, UniProt P01116); experiment: Binding to KRAS by surface plasmon resonance (SPR), Single Cycle Kinetics; details: GDP-bound KRAS wild-type protein, read-out: KRAS KD
Chain of GDP-bound KRAS wild-type protein (P01116 whole entry): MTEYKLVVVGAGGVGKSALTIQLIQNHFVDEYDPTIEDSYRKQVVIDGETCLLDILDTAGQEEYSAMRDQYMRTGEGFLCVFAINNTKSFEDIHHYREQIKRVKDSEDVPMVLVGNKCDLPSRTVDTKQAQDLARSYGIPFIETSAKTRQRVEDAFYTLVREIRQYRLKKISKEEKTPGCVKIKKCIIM

[5] = SPR, GDP-bound NRAS wild-type protein vs GDP-bound KRAS wild-type protein
[6] = SPR, GDP-bound HRAS wild-type protein vs GDP-bound KRAS wild-type protein
[7] = SPR, GDP-bound NRAS wild-type protein vs GDP-bound KRAS wild-type protein, KD ratio class
[8] = SPR, GDP-bound HRAS wild-type protein vs GDP-bound KRAS wild-type protein, KD ratio class
[9] = SPR, Single Cycle Kinetics, 1:1 binding model
[10] = SPR Single Cycle Kinetics, 1:1 binding model

| SMILES | IC50 [2] | Kd [4, 9] | Kd [4, 10] | NRAS/KRAS (ratio of KD value for NRAS to KD value for KRAS) [1, 7] | HRAS/KRAS (ratio of KD value for HRAS to KD value for KRAS) [3, 8] | other results |
| --- | --- | --- | --- | --- | --- | --- |
| CC[C@H](C)[C@@H]1NC(=O)[C@H](CC2CC2)N(C)C(=O)C[C@@H](C)N(C)C(=O)[C@H](C2CCCC2)N(C)C(=O)C2(CCC2)NC(=O)[C@H](CCC(F)F)N(C)C(=O)[C@H](CCc2cc(F)c(C(F)(F)F)c(F)c2)NC(=O)CN(C)C(=O)[C@H](Cc2ccc(C(F)(F)F)cc2)N2CC/C=C\C[C@@H](C2=O)N(C)C(=O)CN(C)C1=O [PP1404] | 498 nM | 4.8 nM | – | A (a compound having 10 or more and less than 20 is denoted as A) | A (a compound having 10 or more and less than 20 is denoted as A) | – |
| CC[C@H](C)[C@@H]1NC(=O)[C@H](CC(C)C)N(C)C(=O)C[C@@H](C(=O)N(C)C)N(C)C(=O)[C@H](C2CCCC2)N(C)C(=O)C2(CCC2)NC(=O)[C@@H]2CCCN2C(=O)[C@H](CCc2cc(F)c(C(F)(F)F)c(F)c2)NC(=O)CN(C)C(=O)[C@H](Cc2ccc(C(F)(F)F)cc2)N2CC/C=C\C[C@@H](C2=O)N(C)C(=O)CN(C)C1=O [PP1272, (2S,8S,14S,20S,23S,27S,30S,36S,38Z)-20-cyclopentyl-8-[2-[3,5-difluoro-4-(trifluoromethyl)phenyl]ethyl]-27-isobutyl-N,N,4,19,22,26,32,35-octamethyl-30-[(1S)-1-methylpropyl]-3,6,9,15,18,21,25,28,31,34,42-undecaoxo-2-[[4-(trifluoromethyl)phenyl]methyl]spiro[1,4,7,10,16,19,22,26,29,32,35-undecazatricyclo[34.5.1.0^10,14]dotetracont-38-ene-17,1′-cyclobutane]-23-carboxamide] | 24 nM | 0.11 nM | – | A (a compound having 10 or more and less than 20 is denoted as A) | A (a compound having 10 or more and less than 20 is denoted as A) | – |
| CCO[C@@H]1C[C@H]2C(=O)NC3(CCC3)C(=O)N(C)[C@@H](C3CCCC3)C(=O)N(C)[C@H](C(=O)N(C)C)CC(=O)N(C)[C@@H](Cc3cccnc3)C(=O)N[C@@H]([C@@H](C)CC)C(=O)N(C)CC(=O)N(C)[C@H]3CCCCCN(C3=O)[C@@H](Cc3ccc(F)cc3)C(=O)N(C)CC(=O)N[C@@H](CCc3cc(F)c(C(F)(F)F)c(F)c3)C(=O)N2C1 [PP1196] | 50.8 nM | – | – | – | – | NRAS/KRAS (ratio of KD value for NRAS to KD value for KRAS) [1, 5]: B (a compound having 3 or more and less than 10 is denoted as B); HRAS/KRAS (ratio of KD value for HRAS to KD value for KRAS) [3, 6]: B (a compound having 3 or more and less than 10 is denoted as B); Kd ([4]; SPR, Single Cycle Kinetics): 0.04 nM |
| CCCN1C(=O)CN(C)C(=O)CN(C)C(=O)[C@H]([C@@H](C)CC)NC(=O)[C@H](CC(C)C)N(C)C(=O)C[C@@H](C(=O)N2CCOCC2)N(C)C(=O)[C@H](C2CCCC2)N(C)C(=O)[C@](C)(COC(C)(C)C)NC(=O)[C@@H]2CCCN2C(=O)[C@H](CCc2cc(F)c(C(F)(F)F)c(F)c2)NC(=O)CN(C)C(=O)[C@@H]1Cc1ccc(C(F)(F)F)cc1 [PP0764] ([NMeL]I[Sar][Sar][NPrPhe(4-CF3)][Sar][hPhe(3,5-F2-4-CF3)]P[αMeS](tBu)[NMeGly(cPent)][NMeD]-Morpholide; lactam N-11) | 215 nM | – | 3.4 nM | – | – | NRAS/KRAS (ratio of KD value with respect to NRAS to KD value with respect to KRAS) [1, 5]: B (a compound having 3 or more and less than 10 is denoted as B); HRAS/KRAS (ratio of KD value with respect to HRAS to KD value with respect to KRAS) [3, 6]: B (a compound having 3 or more and less than 10 is denoted as B) |
| CCO[C@@H]1C[C@H]2C(=O)NC3(CCCC3)C(=O)N(C)[C@@H](C3CCCC3)C(=O)N(C)[C@H](C(=O)N(C)C)CC(=O)N(C)[C@@H](CC)C(=O)N[C@@H]([C@@H](C)CC)C(=O)N(C)CC(=O)N(C)[C@H]3C/C=C\CCN(C3=O)[C@@H](Cc3ccc(C(F)(F)F)cc3)C(=O)N(C)CC(=O)N[C@@H](CCc3cc(F)c(C(F)(F)F)c(F)c3)C(=O)N2C1 [PP1276, (2S,8S,12R,14S,20S,23S,27S,30S,36S,38Z)-20-cyclopentyl-8-[2-[3,5-difluoro-4-(trifluoromethyl)phenyl]ethyl]-12-ethoxy-27-ethyl-N,N,4,19,22,26,32,35-octamethyl-30-[(1S)-1-methylpropyl]-3,6,9,15,18,21,25,28,31,34,42-undecaoxo-2-[[4-(trifluoromethyl)phenyl]methyl]spiro[1,4,7,10,16,19,22,26,29,32,35-undecazatricyclo[34.5.1.0^10,14]dotetracont-38-ene-17,1′-cyclopentane]-23-carboxamide] | 20.8 nM | 0.066 nM | – | A (a compound having 10 or more and less than 20 is denoted as A) | B (a compound having 3 or more and less than 10 is denoted as B) | – |
| CC[C@H](C)[C@@H]1NC(=O)[C@H](C)N(C)C(=O)C[C@@H](C(=O)N(C)C)N(C)C(=O)[C@H](C2CCCC2)N(C)C(=O)C2(CCC2)NC(=O)[C@@H]2CCCN2C(=O)[C@H](CCc2cc(F)c(C(F)(F)F)c(F)c2)NC(=O)CN(C)C(=O)[C@H](Cc2ccc(C(F)(F)F)cc2)N2CC/C=C\C[C@@H](C2=O)N(C)C(=O)CN(C)C1=O [PP1271, (2S,8S,14S,20S,23S,27S,30S,36S,38Z)-20-cyclopentyl-8-[2-[3,5-difluoro-4-(trifluoromethyl)phenyl]ethyl]-N,N,4,19,22,26,27,32,35-nonamethyl-30-[(1S)-1-methylpropyl]-3,6,9,15,18,21,25,28,31,34,42-undecaoxo-2-[[4-(trifluoromethyl)phenyl]methyl]spiro[1,4,7,10,16,19,22,26,29,32,35-undecazatricyclo[34.5.1.0^10,14]dotetracont-38-ene-17,1′-cyclobutane]-23-carboxamide] | 90.7 nM | 0.054 nM | – | AA (a compound having 20 or more is denoted as AA) | A (a compound having 10 or more and less than 20 is denoted as A) | – |
| CCO[C@@H]1C[C@H]2C(=O)NC3(CCC3)C(=O)N(C)[C@@H](C3CCCC3)C(=O)N(C)[C@H](C(=O)N3CCOCC3)CC(=O)N(C)[C@@H](CC)C(=O)N[C@@H]([C@@H](C)CC)C(=O)N(C)CC(=O)N(C)[C@H]3C[C@@H](C)[C@@H](C)CN(C3=O)[C@@H](Cc3ccc(C(F)(F)F)cc3)C(=O)N(C)CC(=O)N[C@@H](CCc3cc(F)c(C(F)(F)F)c(F)c3)C(=O)N2C1 [PP1354] | 3.6 nM | 0.056 nM | – | A (a compound having 10 or more and less than 20 is denoted as A) | B (a compound having 3 or more and less than 10 is denoted as B) | – |

Further lines, with some results ahead:

| IC50 [2] | Kd [4, 9] | Kd [4, 10] | SMILES | NRAS/KRAS (ratio of KD value for NRAS to KD value for KRAS) [1, 7] | HRAS/KRAS (ratio of KD value for HRAS to KD value for KRAS) [3, 8] | other results |
| --- | --- | --- | --- | --- | --- | --- |
| 103 nM | – | – | CCOC[C@H]1C(=O)N[C@@H]([C@@H](C)CC)C(=O)N2CCC[C@H]2C(=O)N(C)[C@H]2C/C=C\CCN(C2=O)[C@@H](CC2CCC(F)(F)CC2)C(=O)N(C)CC(=O)N[C@@H](CCc2ccc(C(F)(F)F)c(OC)c2)C(=O)N2C[C@H](OCC)C[C@H]2C(=O)N(C)C2(CCC2)C(=O)N(C)[C@@H](C(CC)CC)C(=O)N(C)[C@H](C(=O)N(C)C)CC(=O)N1C [PP2355] | – | – | NRAS/KRAS (ratio of KD value for NRAS to KD value for KRAS) [1, 5]: AA (a compound having 20 or more is denoted as AA); HRAS/KRAS (ratio of KD value for HRAS to KD value for KRAS) [3, 6]: A (a compound having 10 or more and less than 20 is denoted as A); Kd ([4]; SPR, Single Cycle Kinetics): 3.9 nM |
| 7.7 nM | – | 0.35 nM | CCOC[C@H]1C(=O)N[C@@H]([C@@H](C)CC)C(=O)N(C2CC2)CC(=O)N(C)[C@H]2C/C=C\CCN(C2=O)[C@@H](Cc2ccc(C)cc2)C(=O)N(C)CC(=O)N[C@@H](CCc2cc(F)c(C(F)(F)F)c(F)c2)C(=O)N2C[C@H](OCC)C[C@H]2C(=O)NC2(CC(C)(C)C2)C(=O)N(C)[C@@H](CC(C)(C)C)C(=O)N(C)[C@H](C(=O)N(C)C)CC(=O)N1C [PP2720] | – | – | NRAS/KRAS (ratio of KD value with respect to GDP-bound NRAS wild-type protein to KD value with respect to KRAS) [1]: A (a compound having 10 or more and less than 20 is denoted as A); HRAS/KRAS (ratio of KD value with respect to GDP-bound HRAS wild-type protein to KD value with respect to KRAS) [3]: A (a compound having 10 or more and less than 20 is denoted as A) |
| 31 nM | – | 0.65 nM | CCC[C@H]1C(=O)N[C@@H]([C@@H](C)CC)C(=O)N(C2CC2)CC(=O)N(C)[C@H]2C/C=C\CCN(C2=O)[C@@H](Cc2ccc(C(F)F)cc2)C(=O)N(C)CC(=O)N[C@@H](CCc2cc(F)c(C(F)(F)F)c(F)c2)C(=O)N2C[C@H](OCC)C[C@H]2C(=O)NC2(CC(C)(C)C2)C(=O)N(C)[C@@H](C(CC)CC)C(=O)N(C)[C@H](C(=O)N(C)C)CC(=O)N1C [PP2527] | – | – | NRAS/KRAS (ratio of KD value with respect to GDP-bound NRAS wild-type protein to KD value with respect to KRAS) [1]: AA (a compound having 20 or more is denoted as AA); HRAS/KRAS (ratio of KD value with respect to GDP-bound HRAS wild-type protein to KD value with respect to KRAS) [3]: A (a compound having 10 or more and less than 20 is denoted as A) |
| 121 nM | – | 3.4 nM | CCC[C@H]1C(=O)N[C@@H](CC(C)C)C(=O)N2C[C@@H](OC)C[C@H]2C(=O)N(C)[C@H]2C/C=C\CCN(C2=O)[C@@H](Cc2ccc(C)cc2)C(=O)N(C)CC(=O)N[C@@H](CCc2cc(F)c(C(F)(F)F)c(F)c2)C(=O)N2C[C@H](OCC)C[C@H]2C(=O)NC2(CC(C)(C)C2)C(=O)N(C)[C@@H](C2CCCC2)C(=O)N(C)[C@H](C(=O)N(C)C)CC(=O)N1C [PP2553] | – | – | NRAS/KRAS (ratio of KD value with respect to GDP-bound NRAS wild-type protein to KD value with respect to KRAS) [1]: A (a compound having 10 or more and less than 20 is denoted as A); HRAS/KRAS (ratio of KD value with respect to GDP-bound HRAS wild-type protein to KD value with respect to KRAS) [3]: B (a compound having 3 or more and less than 10 is denoted as B) |
